This is an account of results in ChEMBL document CHEMBL3301461, “MMV Malaria Box thermal shift screening” (2015).

One assay deals with Plasmodium falciparum. The assay can be described thus: (§1) MMV: Thermal shift assay for identifying inhibitors. Particulars: 3D7.
A further assay relates to Leishmania donovani. The description is as §1.

Regarding `CCN(Cc1ccccc1)C1CCN(Cc2cc(Br)ccc2O)CC1`, the ΔTm in the assay on Plasmodium falciparum was 12.4 °C. `Cc1sc2ncnc(Sc3nc4ccccc4[nH]3)c2c1C`: the ΔTm in the assay with Plasmodium falciparum is 2.1 °C. In the case of `O=C(Nc1ccc(Br)cc1)Nc1cccc(Cl)c1`, in the assay on Plasmodium falciparum, the ΔTm turned out to be 3.6 °C. Consider `Cc1cc(C)cc(Nc2cc(C)nc3nc(C(F)(F)F)nn23)c1`, for which the ΔTm in the assay on Leishmania donovani came to 2.2 °C. Turning to `CCOc1ccc(C2N(C)c3ccccc3N2C)cc1`, the ΔTm in the assay on Leishmania donovani was 2.5 °C. Consider `Cc1ccc(Nc2nc(N)c3ccccc3n2)cc1Cl`, for which the thermal shift (ΔTm) with Leishmania donovani worked out at 4 °C.

Consider `CCOc1cc2c(cc1OCC)C(c1cc(C)c(O)c(C)c1)NCC2` (centres undefined), for which the ΔTm with Leishmania donovani worked out at 3.3 °C.

Regarding `COc1ccc(C(=O)NC(c2ccc(Cl)cc2Cl)c2cc(Cl)c3cccnc3c2O)cc1` (centres undefined), the ΔTm with Leishmania donovani is 2.4 °C. In the case of `Cc1ccc(NC(=O)Nc2cccc(Cl)c2)cc1F`, the ΔTm in the assay on Plasmodium falciparum was 2.4 °C.

Consider `FC(F)(F)c1cccc(Nc2nc3ccccc3nc2Nc2cccc(C(F)(F)F)c2)c1`, for which the ΔTm in the assay on Plasmodium falciparum amounted to 2.5 °C. As for `COc1cccc(C(=O)Nc2ccc(-c3nc4ccccc4[nH]3)cc2)c1`, the ΔTm with Plasmodium falciparum amounted to 2.5 °C. With `O=c1cc(NC2CCN(CCCc3ccccc3)CC2)c2cc(Cl)ccc2o1`, in the assay on Plasmodium falciparum, the ΔTm worked out at 3.1 °C.

`COc1ccc(-c2cc(=O)oc3c4c(ccc23)OCN(Cc2ccc(F)cc2)C4)cc1`: the ΔTm in the assay with Plasmodium falciparum is 2.2 °C.

On to `COc1ccc(C=C2SC(=N)N(c3ccccc3OC)C2=O)cc1`, for which the thermal shift (ΔTm) in the assay on Plasmodium falciparum is 5.4 °C. On to `CCOc1cccc(C(=O)Nc2ccc(-c3nc4ccccc4[nH]3)cc2)c1`, for which the shift in melting temperature (ΔTm) with Plasmodium falciparum stood at 2.9 °C.

As to `COc1cc(C(=O)Nc2ccc(-c3nc4ccccc4[nH]3)cc2)cc(OC)c1OC`, in the assay with Leishmania donovani, the shift in melting temperature (ΔTm) was determined as 4.8 °C. Turning to `CCC(O)c1ccc(Br)cc1NC(=O)c1cccc(Cl)c1` (centres undefined), in the assay with Plasmodium falciparum, the thermal shift (ΔTm) amounted to 2 °C. Consider `FC(F)(F)c1cccc(Nc2nc(-c3ccccc3)nc3ncccc23)c1`, for which the shift in melting temperature (ΔTm) in the assay on Plasmodium falciparum turned out to be 3.7 °C. With `CCCN(CCC)CCCNC(=O)c1cc2c(-c3ccc(OC)c(OC)c3)nn(C)c2s1`, the shift in melting temperature (ΔTm) in the assay on Plasmodium falciparum amounted to 2 °C. As for `CCOC(=O)c1cnc2ccc(Cl)cc2c1NCCCN(C)C`, the shift in melting temperature (ΔTm) in the assay on Plasmodium falciparum was 3.1 °C.

Take `CC1CCCCN1CCCNC(=O)c1ccc2c(c1)sc1nc(-c3ccc(F)cc3)cn12` (centres undefined): the thermal shift (ΔTm) in the assay on Plasmodium falciparum was 2.4 °C. As to `O=C(NC1CCN(Cc2ccccc2)CC1)c1cc(-c2ccncc2)nc2ccc(Cl)cc12`, the ΔTm in the assay on Plasmodium falciparum was 3 °C. Take `Cc1cccc(-n2ncc3c(O)nc(-n4nc(C)cc4NC(=O)c4cc5ccccc5o4)nc32)c1`: in the assay with Plasmodium falciparum, the ΔTm came to 12.7 °C.

`COc1cc(OC)cc(C(=O)Nc2ccc(-c3nc4ccccc4[nH]3)cc2)c1`: the ΔTm in the assay with Plasmodium falciparum worked out at 2.6 °C. Turning to `COc1cc2cc(C(=O)Nc3ccccc3)c(N)nc2cc1OC`, in the assay with Plasmodium falciparum, the thermal shift (ΔTm) worked out at 2.7 °C. Consider `O=C(Nc1ccccc1O)c1ccc(Oc2cccc(C(=O)Nc3ccccc3O)c2)cc1`, for which the ΔTm with Plasmodium falciparum is 2.2 °C. `O=C(NC1CCN(Cc2ccccc2)CC1)c1cc(-c2cccnc2)nc2ccc(Cl)cc12`: the thermal shift (ΔTm) in the assay with Leishmania donovani came out at 2.4 °C. In the case of `COc1ccc2c(c1)OC(O)(C(F)(F)C(F)(F)F)CC2=O` (centres undefined), the ΔTm in the assay on Plasmodium falciparum was determined as 7.5 °C. `CCN(CC)CCNc1ncnc2c1[nH]c1ccc(Cl)cc12`: the shift in melting temperature (ΔTm) in the assay with Plasmodium falciparum was determined as 2.3 °C. Take `CC(C)(C)C(=O)Nc1ccc(C(=O)Nc2cccc(-c3nc4ccccc4[nH]3)c2)cc1`: the ΔTm in the assay with Plasmodium falciparum worked out at 2.3 °C. Regarding `CCN(CC)CCCNc1nc(-c2ccc(Cl)cc2)nc2ccccc12`, the ΔTm with Plasmodium falciparum turned out to be 4.1 °C.

With `COc1ccc(Nc2nc(NCc3ccccc3)c3ccccc3n2)cc1`, in the assay with Plasmodium falciparum, the ΔTm stood at 2.4 °C. On to `COc1cccc(Nc2nc(NCCO)c3ccccc3n2)c1`, for which the ΔTm in the assay on Plasmodium falciparum stood at 2 °C. As for `CC1CCN(Cc2ccc(NC(=O)c3cc4ccc5cccnc5c4[nH]3)cc2)CC1`, the ΔTm in the assay on Plasmodium falciparum was 2.2 °C.
